In US9637483B2, “Heterocyclic compound” (TAKEDA PHARMACEUTICAL COMPANY LIMITED, priority 2013, dated 2017):

What was measured:
Type in all cases: biochemical
[1] = biological target: T1, TYK2 (Homo sapiens, UniProt P29597); assay: TYK2 enzyme inhibition test (LANCE method); settings: 1 μM test compound; for inhibition at 1 µM: read-out: TYK2 enzyme inhibitory activity (%, 1 μM)
T1 construct: purchased Invitrogen
Method in brief: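 Recombinant TYK2 (375 ng/mL working solution) with ULight-JAK1 peptide (300 nM working solution) and ATP (30 μM working solution) in HEPES pH 7.5 buffer with MgCl2, EGTA, DTT, Tween20, BSA, reacted 1 h at RT. EDTA-stopped, Eu-anti-phosphotyrosine TR-FRET read at 665 nm; inhibition relative to enzyme-free wells as 100%.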

[2] = biological target: T2, JAK1 (Homo sapiens, UniProt P23458); assay: JAK1 enzyme inhibition test (LANCE method); settings: 1 μM test compound; for inhibition at 1 µM: read-out: JAK1 enzyme inhibitory activity (%, 1 μM)
T2 construct: purchased Invitrogen
T2 sequence (P23458 whole entry): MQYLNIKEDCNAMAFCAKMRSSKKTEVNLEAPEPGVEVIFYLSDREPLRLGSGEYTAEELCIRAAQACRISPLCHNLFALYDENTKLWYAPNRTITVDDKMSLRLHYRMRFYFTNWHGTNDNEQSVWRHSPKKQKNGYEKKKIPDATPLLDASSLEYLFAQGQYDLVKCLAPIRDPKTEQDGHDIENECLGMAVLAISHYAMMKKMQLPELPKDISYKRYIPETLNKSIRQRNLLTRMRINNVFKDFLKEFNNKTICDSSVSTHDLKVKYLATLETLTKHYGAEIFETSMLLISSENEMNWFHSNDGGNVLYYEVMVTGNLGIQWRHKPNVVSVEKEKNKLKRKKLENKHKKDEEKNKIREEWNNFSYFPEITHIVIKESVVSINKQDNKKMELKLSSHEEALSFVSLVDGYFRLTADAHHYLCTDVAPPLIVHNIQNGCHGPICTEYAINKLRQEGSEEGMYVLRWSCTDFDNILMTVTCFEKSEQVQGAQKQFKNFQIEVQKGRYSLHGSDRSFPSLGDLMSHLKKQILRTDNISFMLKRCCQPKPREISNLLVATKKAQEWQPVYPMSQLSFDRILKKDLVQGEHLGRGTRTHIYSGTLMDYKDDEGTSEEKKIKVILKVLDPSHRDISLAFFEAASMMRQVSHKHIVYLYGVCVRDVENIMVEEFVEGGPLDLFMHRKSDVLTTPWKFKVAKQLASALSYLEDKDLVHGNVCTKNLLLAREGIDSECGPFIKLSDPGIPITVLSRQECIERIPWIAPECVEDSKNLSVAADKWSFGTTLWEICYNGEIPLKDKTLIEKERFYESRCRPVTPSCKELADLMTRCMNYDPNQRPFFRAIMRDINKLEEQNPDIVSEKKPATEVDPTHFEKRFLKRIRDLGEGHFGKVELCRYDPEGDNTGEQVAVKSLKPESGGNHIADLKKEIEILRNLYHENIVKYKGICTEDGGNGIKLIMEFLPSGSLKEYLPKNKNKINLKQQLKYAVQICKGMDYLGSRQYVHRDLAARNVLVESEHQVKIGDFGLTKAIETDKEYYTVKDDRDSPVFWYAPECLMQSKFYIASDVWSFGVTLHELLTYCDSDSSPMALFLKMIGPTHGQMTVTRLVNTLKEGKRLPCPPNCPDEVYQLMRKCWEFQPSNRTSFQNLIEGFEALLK
Method in brief: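 TR-FRET (LANCE) with ULight-JAK1 peptide (300 nM working solution) and ATP (150 μM working solution) in HEPES pH 7.5, MgCl2, EGTA, DTT buffer; 1 h at room temperature. EDTA stop plus Eu-anti-phosphotyrosine antibody, 665 nm read after 1 h. Inhibition relative to enzyme-free wells as 100%.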

[3] = biological target: T3, JAK3 (Homo sapiens, UniProt P52333); assay: JAK3 enzyme inhibition test (LANCE method); settings: 1 μM test compound; for inhibition at 1 µM: read-out: JAK3 enzyme inhibitory activity (%, 1 μM)
T3 construct: purchased Invitrogen
T3 sequence (P52333 1-1124): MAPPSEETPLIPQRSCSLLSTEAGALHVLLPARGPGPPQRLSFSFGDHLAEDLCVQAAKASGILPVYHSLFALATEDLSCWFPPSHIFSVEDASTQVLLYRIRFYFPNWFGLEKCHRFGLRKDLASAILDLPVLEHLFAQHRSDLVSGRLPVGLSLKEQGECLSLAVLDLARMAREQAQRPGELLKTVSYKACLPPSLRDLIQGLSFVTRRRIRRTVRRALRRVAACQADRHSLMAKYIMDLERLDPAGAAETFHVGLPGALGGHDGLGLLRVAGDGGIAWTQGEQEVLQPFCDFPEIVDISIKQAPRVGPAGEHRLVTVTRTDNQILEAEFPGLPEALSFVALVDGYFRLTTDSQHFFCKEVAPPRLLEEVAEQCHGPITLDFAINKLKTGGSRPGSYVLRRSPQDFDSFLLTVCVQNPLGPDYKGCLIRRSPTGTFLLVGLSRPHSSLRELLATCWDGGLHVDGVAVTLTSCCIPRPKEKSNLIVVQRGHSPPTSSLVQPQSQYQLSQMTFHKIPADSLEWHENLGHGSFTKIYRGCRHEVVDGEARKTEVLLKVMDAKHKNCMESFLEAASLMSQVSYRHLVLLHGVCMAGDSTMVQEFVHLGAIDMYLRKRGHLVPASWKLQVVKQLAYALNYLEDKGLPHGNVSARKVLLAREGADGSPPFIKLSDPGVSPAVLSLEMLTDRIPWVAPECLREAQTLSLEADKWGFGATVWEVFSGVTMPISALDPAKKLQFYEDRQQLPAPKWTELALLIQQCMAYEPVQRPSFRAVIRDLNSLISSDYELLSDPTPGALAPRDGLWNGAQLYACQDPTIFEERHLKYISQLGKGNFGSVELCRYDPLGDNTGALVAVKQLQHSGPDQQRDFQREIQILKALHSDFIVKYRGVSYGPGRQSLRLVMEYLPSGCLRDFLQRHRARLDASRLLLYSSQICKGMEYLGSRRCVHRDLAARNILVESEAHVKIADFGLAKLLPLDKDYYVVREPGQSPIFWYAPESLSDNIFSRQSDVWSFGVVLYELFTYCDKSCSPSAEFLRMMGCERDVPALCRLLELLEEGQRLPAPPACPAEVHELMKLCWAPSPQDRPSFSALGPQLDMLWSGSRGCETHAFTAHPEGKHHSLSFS
Method in brief: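 Recombinant JAK3 (12 ng/mL solution) with ULight-JAK1 peptide (300 nM solution) and ATP (15 μM solution) in HEPES pH 7.5 buffer, 1 h at room temperature. EDTA stop with Eu-anti-phosphotyrosine antibody; TR-FRET at 665 nm. Inhibition relative to enzyme-free wells as 100%.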

[4] = biological target: T4, JAK2 (Homo sapiens, UniProt O60674); assay: JAK2 enzyme inhibition test (LANCE method); settings: 1 μM test compound; for inhibition at 1 µM: read-out: JAK2 enzyme inhibitory activity (%, 1 μM)
T4 construct: purchased Invitrogen
T4 sequence (O60674 whole entry): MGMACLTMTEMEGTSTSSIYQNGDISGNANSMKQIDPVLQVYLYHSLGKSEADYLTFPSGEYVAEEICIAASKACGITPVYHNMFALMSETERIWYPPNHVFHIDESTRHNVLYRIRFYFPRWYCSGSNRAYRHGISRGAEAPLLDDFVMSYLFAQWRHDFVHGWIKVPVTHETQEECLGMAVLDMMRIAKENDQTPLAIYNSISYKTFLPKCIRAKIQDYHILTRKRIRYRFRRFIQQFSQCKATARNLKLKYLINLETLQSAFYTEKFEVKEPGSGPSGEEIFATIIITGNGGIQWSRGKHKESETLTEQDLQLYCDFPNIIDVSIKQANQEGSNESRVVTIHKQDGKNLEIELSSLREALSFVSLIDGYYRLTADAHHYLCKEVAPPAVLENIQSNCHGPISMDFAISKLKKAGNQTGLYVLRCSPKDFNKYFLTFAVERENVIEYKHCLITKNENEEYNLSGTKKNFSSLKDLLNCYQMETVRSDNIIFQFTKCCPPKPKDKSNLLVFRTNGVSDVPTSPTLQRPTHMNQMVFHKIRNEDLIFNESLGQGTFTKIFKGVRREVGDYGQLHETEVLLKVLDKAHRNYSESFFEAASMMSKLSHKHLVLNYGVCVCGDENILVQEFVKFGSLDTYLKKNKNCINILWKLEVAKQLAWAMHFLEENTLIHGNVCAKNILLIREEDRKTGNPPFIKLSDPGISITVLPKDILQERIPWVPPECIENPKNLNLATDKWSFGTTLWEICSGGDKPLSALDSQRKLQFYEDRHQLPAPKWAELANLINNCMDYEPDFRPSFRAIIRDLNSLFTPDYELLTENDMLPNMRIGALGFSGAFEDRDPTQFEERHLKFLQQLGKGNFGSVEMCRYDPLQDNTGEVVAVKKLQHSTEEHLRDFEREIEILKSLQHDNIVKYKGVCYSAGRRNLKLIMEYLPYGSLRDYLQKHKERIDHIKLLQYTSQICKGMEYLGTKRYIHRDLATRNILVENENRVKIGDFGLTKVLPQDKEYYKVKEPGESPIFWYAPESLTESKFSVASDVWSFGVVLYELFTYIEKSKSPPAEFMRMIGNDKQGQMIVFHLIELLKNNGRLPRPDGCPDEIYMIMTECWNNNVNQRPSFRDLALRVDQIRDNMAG
Method in brief: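 Recombinant JAK2 (6 ng/mL solution) phosphorylated ULight-JAK1 peptide (300 nM solution) with ATP (45 μM solution) in pH 7.5 HEPES/MgCl2/DTT buffer for 1 hr at room temperature. After EDTA stop and europium anti-phosphotyrosine antibody for 1 hr, TR-FRET read at 665 nm; inhibition relative to enzyme-free wells as 100%.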

T1 sequence (P29597 whole entry): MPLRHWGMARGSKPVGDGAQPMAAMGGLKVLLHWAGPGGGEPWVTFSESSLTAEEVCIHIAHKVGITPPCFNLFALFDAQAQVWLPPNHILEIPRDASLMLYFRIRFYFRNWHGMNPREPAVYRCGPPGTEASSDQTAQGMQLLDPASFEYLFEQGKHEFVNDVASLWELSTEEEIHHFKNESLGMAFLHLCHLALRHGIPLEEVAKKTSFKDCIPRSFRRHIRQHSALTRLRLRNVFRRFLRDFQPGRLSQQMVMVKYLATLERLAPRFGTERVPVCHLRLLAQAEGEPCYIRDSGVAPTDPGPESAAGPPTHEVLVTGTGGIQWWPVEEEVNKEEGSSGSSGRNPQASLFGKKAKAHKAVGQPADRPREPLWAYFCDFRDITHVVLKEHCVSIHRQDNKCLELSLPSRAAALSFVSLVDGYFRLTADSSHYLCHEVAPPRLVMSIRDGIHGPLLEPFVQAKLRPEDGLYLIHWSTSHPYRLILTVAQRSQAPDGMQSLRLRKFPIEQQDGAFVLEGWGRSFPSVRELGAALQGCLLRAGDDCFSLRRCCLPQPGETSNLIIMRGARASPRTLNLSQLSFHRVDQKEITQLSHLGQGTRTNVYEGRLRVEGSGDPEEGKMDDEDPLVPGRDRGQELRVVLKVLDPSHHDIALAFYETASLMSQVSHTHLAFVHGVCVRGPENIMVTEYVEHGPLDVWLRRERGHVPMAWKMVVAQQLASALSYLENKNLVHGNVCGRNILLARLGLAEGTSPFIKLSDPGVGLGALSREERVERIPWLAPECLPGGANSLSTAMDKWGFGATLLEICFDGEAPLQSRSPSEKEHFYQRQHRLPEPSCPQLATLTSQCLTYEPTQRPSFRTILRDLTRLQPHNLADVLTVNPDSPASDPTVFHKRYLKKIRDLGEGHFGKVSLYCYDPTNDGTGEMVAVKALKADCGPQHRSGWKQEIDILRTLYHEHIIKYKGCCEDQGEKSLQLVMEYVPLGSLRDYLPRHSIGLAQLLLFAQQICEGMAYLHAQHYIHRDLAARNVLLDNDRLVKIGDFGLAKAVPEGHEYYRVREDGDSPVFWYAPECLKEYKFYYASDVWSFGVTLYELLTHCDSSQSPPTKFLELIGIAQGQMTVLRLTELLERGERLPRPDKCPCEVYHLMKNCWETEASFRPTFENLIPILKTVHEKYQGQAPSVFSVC

| SMILES | inhibition at 1 µM [1] | inhibition at 1 µM [2] | inhibition at 1 µM [3] | inhibition at 1 µM [4] | JAK1 enzyme inhibitory activity (%, 1 μM) [2] | TYK2 enzyme inhibitory activity (%, 1 μM) [1] | JAK3 enzyme inhibitory activity (%, 1 μM) [3] | JAK2 enzyme inhibitory activity (%, 1 μM) [4] |
| --- | --- | --- | --- | --- | --- | --- | --- | --- |
| Cn1nc(-c2cn(C(C3CC3)C3CC3)c(=O)c3c(N)n[nH]c23)cc1C1=CCCCC1 [Example 147, 3-amino-7-(5-(cyclohex-1-en-1-yl)-1-methyl-1H-pyrazol-3-yl)-5-(dicyclopropylmethyl)-1,5-dihydro-4H-pyrazolo[4,3-c]pyridin-4-one] | 110% | 101% | 103% | 101% | – | – | – | – |
| Cn1nc(-c2cn(C(C3CC3)C3CC3)c(=O)c3c(N)n[nH]c23)cc1C1CCCCC1 [Example 148, 3-amino-7-(5-cyclohexyl-1-methyl-1H-pyrazol-3-yl)-5-(dicyclopropylmethyl)-1,5-dihydro-4H-pyrazolo[4,3-c]pyridin-4-one] | 110% | 101% | 104% | 101% | – | – | – | – |
| CN1CCN(c2cc(-c3cn(C(C4CC4)C4CC4)c(=O)c4c(N)n[nH]c34)nn2C)CC1 [Example 149, 3-amino-5-(dicyclopropylmethyl)-7-(1-methyl-5-(4-methylpiperazin-1-yl)-1H-pyrazol-3-yl)-1,5-dihydro-4H-pyrazolo[4,3-c]pyridin-4-one] | 106% | 100% | 101% | 99% | – | – | – | – |
| CN1CCCN(c2cc(-c3cn(C(C4CC4)C4CC4)c(=O)c4c(N)n[nH]c34)nn2C)CC1 [Example 150, 3-amino-5-(dicyclopropylmethyl)-7-(1-methyl-5-(4-methyl-1,4-diazepan-1-yl)-1H-pyrazol-3-yl)-1,5-dihydro-4H-pyrazolo[4,3-c]pyridin-4-one] | 102% | 98% | 101% | 100% | – | – | – | – |
| Cn1nc(-c2cn(C(C3CC3)C3CC3)c(=O)c3c(N)n[nH]c23)cc1N1C2CCC1COC2 [Example 151, 3-amino-5-(dicyclopropylmethyl)-7-(1-methyl-5-(3-oxa-8-azabicyclo[3.2.1]oct-8-yl)-1H-pyrazol-3-yl)-1,5-dihydro-4H-pyrazolo[4,3-c]pyridin-4-one] | 102% | 99% | 101% | 100% | – | – | – | – |
| CC1CCCCC1n1cc(-c2cc(N3CCOCC3)n(C)n2)c2[nH]nc(N)c2c1=O (stereo not drawn) [Example 152, 3-amino-5-(2-methylcyclohexyl)-7-(1-methyl-5-(morpholin-4-yl)-1H-pyrazol-3-yl)-1,5-dihydro-4H-pyrazolo[4,3-c]pyridin-4-one] | 102% | – | 101% | 101% | 100% | – | – | – |
| CC1CCCCC1n1cc(-c2cc(N3CCOCC3)n(C)n2)c2[nH]nc(N)c2c1=O (stereo not drawn) [Example 153, 3-amino-5-(2-methylcyclohexyl)-7-(1-methyl-5-(morpholin-4-yl)-1H-pyrazol-3-yl)-1,5-dihydro-4H-pyrazolo[4,3-c]pyridin-4-one] | – | – | – | – | 99% | 103% | 101% | 98% |
| CC1CCCCC1n1cc(-c2cc(N3CCOCC3)n(C)n2)c2[nH]nc(N)c2c1=O (stereo not drawn) [Example 154, 3-amino-5-(2-methylcyclohexyl)-7-(1-methyl-5-(morpholin-4-yl)-1H-pyrazol-3-yl)-1,5-dihydro-4H-pyrazolo[4,3-c]pyridin-4-one] | – | – | – | – | 97% | 102% | 100% | 98% |
| CC1CCCCC1n1cc(-c2cc(N3CCOCC3)n(C)n2)c2[nH]nc(N)c2c1=O (stereo not drawn) [Example 155, 3-amino-5-(2-methylcyclohexyl)-7-(1-methyl-5-(morpholin-4-yl)-1H-pyrazol-3-yl)-1,5-dihydro-4H-pyrazolo[4,3-c]pyridin-4-one] | – | – | – | – | 76% | 101% | 98% | 81% |
| CN(C)[C@@H]1CCN(c2cc(-c3cn(C(C4CC4)C4CC4)c(=O)c4c(N)n[nH]c34)nn2C)C1 [Example 156, 3-amino-5-(dicyclopropylmethyl)-7-(5-((3R)-3-(dimethylamino)pyrrolidin-1-yl)-1-methyl-1H-pyrazol-3-yl)-1,5-dihydro-4H-pyrazolo[4,3-c]pyridin-4-one] | 100% | 100% | 100% | 99% | – | – | – | – |

More lines, now with the values ahead:

| inhibition at 1 µM [1] | inhibition at 1 µM [2] | inhibition at 1 µM [3] | inhibition at 1 µM [4] | JAK1 enzyme inhibitory activity (%, 1 μM) [2] | TYK2 enzyme inhibitory activity (%, 1 μM) [1] | JAK3 enzyme inhibitory activity (%, 1 μM) [3] | JAK2 enzyme inhibitory activity (%, 1 μM) [4] | SMILES |
| --- | --- | --- | --- | --- | --- | --- | --- | --- |
| 101% | 99% | 100% | 99% | – | – | – | – | Cn1nc(-c2cn(C(C3CC3)C3CC3)c(=O)c3c(N)n[nH]c23)cc1N1CCC[C@@H]1CO [Example 157, 3-amino-5-(dicyclopropylmethyl)-7-(5-((2R)-2-(hydroxymethyl)pyrrolidin-1-yl)-1-methyl-1H-pyrazol-3-yl)-1,5-dihydro-4H-pyrazolo[4,3-c]pyridin-4-one] |
| 101% | 92% | 100% | 99% | – | – | – | – | Cn1nc(-c2cn(C(C3CC3)C3CC3)c(=O)c3c(N)n[nH]c23)cc1N1CCC[C@@H]1CN1CCCC1 [Example 158, 3-amino-5-(dicyclopropylmethyl)-7-(1-methyl-5-((2R)-2-(pyrrolidin-1-ylmethyl)pyrrolidin-1-yl)-1H-pyrazol-3-yl)-1,5-dihydro-4H-pyrazolo[4,3-c]pyridin-4-one] |
| 100% | 99% | 100% | 99% | – | – | – | – | COC[C@H]1CCCN1c1cc(-c2cn(C(C3CC3)C3CC3)c(=O)c3c(N)n[nH]c23)nn1C [Example 159, 3-amino-5-(dicyclopropylmethyl)-7-(5-((2R)-2-(methoxymethyl)pyrrolidin-1-yl)-1-methyl-1H-pyrazol-3-yl)-1,5-dihydro-4H-pyrazolo[4,3-c]pyridin-4-one] |
| 100% | 99% | 100% | 100% | – | – | – | – | CN(C)[C@H]1CCN(c2cc(-c3cn(C(C4CC4)C4CC4)c(=O)c4c(N)n[nH]c34)nn2C)C1 [Example 160, 3-amino-5-(dicyclopropylmethyl)-7-(5-((3S)-3-(dimethylamino)pyrrolidin-1-yl)-1-methyl-1H-pyrazol-3-yl)-1,5-dihydro-4H-pyrazolo[4,3-c]pyridin-4-one] |
| 100% | 100% | 100% | 99% | – | – | – | – | Cn1nc(-c2cn(C(C3CC3)C3CC3)c(=O)c3c(N)n[nH]c23)cc1C1CC1 [Example 161, 3-amino-7-(5-cyclopropyl-1-methyl-1H-pyrazol-3-yl)-5-(dicyclopropylmethyl)-1,5-dihydro-4H-pyrazolo[4,3-c]pyridin-4-one] |
